The values that follow come from PMC5891627, “Binding Specificity of Two PBPs in the Yellow Peach Moth Conogethes punctiferalis (Guenée)” (Frontiers in Physiology, 2018).

One experiment has as its target CpunPBP2 (Conogethes punctiferalis, UniProt A0A1D6X8W8). In words: Fluorescence displacement (competitive, 1-NPN) binding assay. The settings on record: for IC50 / Kd / activity at 6000 µM: pH = 7.4; for IC50: 1-NPN 2 μM as fluorescent reporter, 2 μM protein, read-out: IC50; for Kd: calculated from IC50: KD = [IC50]/(1+[1-NPN]/K1-NPN), read-out: KD (μM), calculated dissociation constant; for binding affinity to CpunPBP2 (in words): ranking among the 24 tested ligands; for activity at 6000 µM: ratio of fluorescence intensity at the pheromone concentration of 6 mM to the initial fluorescence intensity, read-out: Int (%). The protocol:
(§1) The fluorescence intensity was recorded on a FluoroMax-4 spectrophotometer (Horiba Scientific, USA) at room temperature using a 1 cm light path fluorimeter quartz cuvette. The fluorescent probe N-phenyl-1-naphthylamine (1-NPN) and all the tested chemicals were dissolved in HPLC purity methanol. The final concentration was prepared 1 mM. […] The fluorescence of 1-NPN was excited at 337 nm and emission spectra were recorded between […]. […] The GraphPad Prism 5 (GraphPad Software, Inc.) was used to estimate the K1−NPN (KD of complex protein /1-NPN) values by nonlinear regression for a unique site of binding. It was assumed that the proteins were 100% active, with a stoichiometry of 1:1 (protein:ligand) at saturation. […] In the equation, [1-NPN] is the free concentration of 1-NPN, and K1−NPN is the dissociation constant of the complex protein /1-NPN.

The next experiment addresses CpunPBP5 (Conogethes punctiferalis, UniProt A0A0M4FIS7). The description is as above. The settings on record: for IC50 / Kd / activity at 6000 µM: pH = 7.4; for IC50: 1-NPN 2 μM as fluorescent reporter, 2 μM protein, read-out: IC50; for Kd: calculated from IC50: KD = [IC50]/(1+[1-NPN]/K1-NPN), read-out: KD (μM), calculated dissociation constant; for binding affinity to CpunPBP5 (in words): ranking among the 24 tested ligands; for activity at 6000 µM: ratio of fluorescence intensity at the pheromone concentration of 6 mM to the initial fluorescence intensity, read-out: Int (%). The protocol:
as §1

The target in experiment [1] is CpunPBP2-m1 (CpunPBP2-Phe9 mutant) (Conogethes punctiferalis, UniProt A0A1D6X8W8, F33Y). Nature of the experiment: Fluorescence displacement binding assay of mutants. Conditions: for Kd: read-out: KD, calculated dissociation constant. The protocol: (§2) The fluorescence intensity was recorded on a FluoroMax-4 spectrophotometer (Horiba Scientific, USA) at room temperature using a 1 cm light path fluorimeter quartz cuvette. The fluorescent probe N-phenyl-1-naphthylamine (1-NPN) and all the tested chemicals were dissolved in HPLC purity methanol. The final concentration was prepared 1 mM. To measure the affinity of florescent ligand 1-NPN to each protein, a 2 μM solution of the protein in 50 mM Tris-HCl, pH 7.4, was titrated with aliquots of 1 mM ligand in methanol to final concentrations of 1–8 μM. The fluorescence of 1-NPN was excited at 337 nm and emission spectra were recorded between […] and 450 nm. The affinity of other ligands was measured in competitive binding assays, using 1-NPN as the fluorescent reporter at 2 μM concentration and different concentrations of each ligands. The GraphPad Prism 5 (GraphPad Software, Inc.) was used to estimate the K1−NPN (KD of complex protein /1-NPN) values by nonlinear regression for a unique site of binding. It was assumed that the proteins were 100% active, with a stoichiometry of 1:1 (protein:ligand) at saturation. For other competitor ligands, the dissociation constants were calculated from the corresponding IC50 (concentrations of ligands halving the initial fluorescence value of 1-NPN) values using Microsoft Office Excel 2010, with the formula: KD = [IC50]/(1+[1-NPN]/K1−NPN). In the equation, [1-NPN] is the free concentration of 1-NPN, and K1−NPN is the dissociation constant of the complex protein /1-NPN.
CpunPBP2-m1 (CpunPBP2-Phe9 mutant), sequence (A0A1D6X8W8 entry or part of it F33Y): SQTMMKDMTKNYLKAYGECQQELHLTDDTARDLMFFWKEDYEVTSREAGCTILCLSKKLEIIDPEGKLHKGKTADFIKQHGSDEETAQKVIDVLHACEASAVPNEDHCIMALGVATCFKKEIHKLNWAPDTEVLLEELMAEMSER
(§3) Four mutants of CpunPBP2 and four mutants of CpunPBP5 were developed using the QuikChange Lightning Site-Directed Mutagenesis Kit (Stratagene, USA). The mutational primers were designed manually. Mutation sites are underlined in Table S2. The CpunPBP2/pGEM-T Easy construct was used as a template. The PCR conditions were 95°C for 5 min, followed by 30 cycles of 95°C for 30 s, 58°C for 30 s and 68°C for 1 min, and final extension at 72°C for 10 min. The correct insertion of mutation was subcloned into pGEM-T Easy vector (TransGen, Beijing, China). The expression system and fluorescence binding assay were conducted as mentioned for wild type proteins.
(§4) Supplementary file Image3.jpg: Figure S3 SDS-PAGE analyses of purified CpunPBP2 and CpunPBP5 with their mutants. M: marker protein. (A)1:CpunPBP2 original protein. (A)2: CpunPBP2-Phe9 mutant (CpunPBP2-m1). (A)3: CpunPBP2-Phe33 mutant (CpunPBP2-m2). (A)4: CpunPBP2-Ser53 mutant (CpunPBP2-m3). (A)5: CpunPBP2-Phe115 mutant (CpunPBP2-m4). (B)1:CpunPBP5 original protein. (B)2: CpunPBP5-Ser9 mutant (CpunPBP5-m1). (B)3: CpunPBP5-Phe12 mutant (CpunPBP5-m2). (B)4: CpunPBP5-Val115 mutant (CpunPBP5-m3). (B)5: CpunPBP5-Arg120 mutant (CpunPBP5-m4). Click here for additional data file.

Experiment [2] addresses CpunPBP2-m2 (CpunPBP2-Phe33 mutant) (Conogethes punctiferalis, UniProt A0A1D6X8W8, F57Y). Nature of the experiment: Fluorescence displacement binding assay of mutants. Conditions: for Kd: read-out: KD, calculated dissociation constant. The protocol:
as §2, §3, §4

Experiment [3] addresses CpunPBP2-m3 (CpunPBP2-Ser53 mutant) (Conogethes punctiferalis, UniProt A0A1D6X8W8, S77Y). Nature of the experiment: Fluorescence displacement binding assay of mutants. The settings on record: for Kd: read-out: KD, calculated dissociation constant. The protocol:
as §2, §3, §4

In experiment [4] the target is CpunPBP2-m4 (CpunPBP2-Phe115 mutant) (Conogethes punctiferalis, UniProt A0A1D6X8W8, F139Y). In words: Fluorescence displacement binding assay of mutants. The settings on record: for Kd: read-out: KD, calculated dissociation constant. The protocol: as §2, §3, §4
CpunPBP2-m4 (CpunPBP2-Phe115 mutant), sequence (A0A1D6X8W8 entry or part of it F139Y): as the sequence (A0A1D6X8W8 entry or part of it F33Y) above, with Y12F, F118Y counted along it
Experiment [5] deals with CpunPBP5-m1 (CpunPBP5-Ser9 mutant) (Conogethes punctiferalis, UniProt A0A0M4FIS7, S34T). In words: Fluorescence displacement binding assay of mutants. The protocol:
as §2, §3, §4

Experiment [6] deals with CpunPBP5-m2 (CpunPBP5-Phe12 mutant) (Conogethes punctiferalis, UniProt A0A0M4FIS7, F37Y). In words: Fluorescence displacement binding assay of mutants. The protocol:
as §2, §3, §4

In experiment [7] the target is CpunPBP5-m3 (CpunPBP5-Val115 mutant) (Conogethes punctiferalis, UniProt A0A0M4FIS7, V140A). Nature of the experiment: Fluorescence displacement binding assay of mutants. The protocol:
as §2, §3, §4

Experiment [8] concerns the target CpunPBP5-m4 (CpunPBP5-Arg120 mutant) (Conogethes punctiferalis, UniProt A0A0M4FIS7, R145K). In words: Fluorescence displacement binding assay of mutants. The protocol: as §2, §3, §4
In the next experiment the test system is yellow peach moth males. Also on record: method as in Liu et al., [1994]. Conditions: ref Liu et al., [1994]; cited from earlier work.

CpunPBP5-m2 (CpunPBP5-Phe12 mutant), sequence (A0A0M4FIS7 entry or part of it F37Y): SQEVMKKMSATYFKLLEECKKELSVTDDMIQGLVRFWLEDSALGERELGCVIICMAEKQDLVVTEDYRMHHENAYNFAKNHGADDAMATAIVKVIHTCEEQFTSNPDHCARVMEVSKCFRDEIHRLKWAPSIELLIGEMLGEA
CpunPBP5-m1 (CpunPBP5-Ser9 mutant), sequence (A0A0M4FIS7 entry or part of it S34T): as the sequence (A0A0M4FIS7 entry or part of it F37Y) above, with S9T, Y12F counted along it
CpunPBP5-m4 (CpunPBP5-Arg120 mutant), sequence (A0A0M4FIS7 entry or part of it R145K): as the sequence (A0A0M4FIS7 entry or part of it F37Y) above, with Y12F, R120K counted along it
CpunPBP5-m3 (CpunPBP5-Val115 mutant), sequence (A0A0M4FIS7 entry or part of it V140A): as the sequence (A0A0M4FIS7 entry or part of it F37Y) above, with Y12F, V115A counted along it
CpunPBP2-m2 (CpunPBP2-Phe33 mutant), sequence (A0A1D6X8W8 entry or part of it F57Y): as the sequence (A0A1D6X8W8 entry or part of it F33Y) above, with Y12F, F36Y counted along it
CpunPBP2-m3 (CpunPBP2-Ser53 mutant), sequence (A0A1D6X8W8 entry or part of it S77Y): as the sequence (A0A1D6X8W8 entry or part of it F33Y) above, with Y12F, S56Y counted along it
CpunPBP5, sequence (A0A0M4FIS7 entry or part of it): as the sequence (A0A0M4FIS7 entry or part of it F37Y) above, with Y12F counted along it
CpunPBP2, sequence (A0A1D6X8W8 entry or part of it): as the sequence (A0A1D6X8W8 entry or part of it F33Y) above, with Y12F counted along it

In general, IC50 refers to the concentration needed to halve the response being measured. For orientation: Kd means the equilibrium constant for the complex coming apart. In the case of `CCCCC/C=C/CCCCCCCCC=O` [E10-16:Ald, (E)-10-hexadecenal], the IC50 at CpunPBP2 came to 940 ± 30 nM; at CpunPBP5 it was 1330 ± 60 nM; in [1] it was 800 ± 20 nM; in experiment [2], 1180 ± 200 nM; in [3], 1040 ± 130 nM; in experiment [4], 30000 ± 17600 nM. Besides, the IC50 worked out at 1630 ± 10 nM in experiment [5], 2730 ± 330 nM in experiment [6], 3640 ± 100 nM in experiment [7] and 2610 ± 780 nM in experiment [8]. Moreover, the Kd at CpunPBP2 was 0.4 ± 0.01 µM; at CpunPBP5, 0.6 ± 0.02 µM; in [1], 220 ± 10 nM; in [2], 540 ± 90 nM; in [3], 110 ± 10 nM; in experiment [4], 19900 ± 11700 nM. Also, the dissociation constant Kd in experiment [5] worked out at 720 nM; in experiment [6], 1490 ± 180 nM; in [7], 1850 ± 160 nM; in experiment [8], 1060 ± 320 nM. The “binding affinity to CpunPBP2 (in words)” value at CpunPBP2 was “highest binding ability”. The activity at 6000 µM at CpunPBP2 came to 39.5 ± 0.83%; on CpunPBP5 it was 40 ± 1.53%. Besides, the “binding affinity to CpunPBP5 (in words)” value on CpunPBP5 was “highest binding ability”. Moreover, the “binding affinity of mutant compared with CpunPBP5 (in words)” value in experiment [7] (mutant CpunPBP5-m3 vs wild type) is given as “decreased the most”.
In the case of `CCCCC/C=C\CCCCCCCCC=O` [Z10-16:Ald, (Z)-10-hexadecenal], the IC50 at CpunPBP2 was 980 ± 90 nM; at CpunPBP5, 970 ± 20 nM; in experiment [1] it was 760 ± 10 nM; in experiment [2], 790 ± 30 nM; in experiment [3], 920 ± 50 nM; in [4], 15400 ± 3180 nM. Also, the IC50 in experiment [5] is 1410 ± 20 nM; in experiment [6] it was 1660 ± 30 nM; in experiment [7], 1620 ± 40 nM; in [8] it was 2570 ± 550 nM. Moreover, the Kd on CpunPBP2 was 0.42 ± 0.04 µM; on CpunPBP5, 0.36 ± 0.01 µM; in experiment [1], 210 nM; in experiment [2], 360 ± 10 nM; in experiment [3], 100 nM; in experiment [4], 10200 ± 2110 nM. Moreover, the Kd in [5] stood at 720 ± 10 nM; in experiment [6], 900 ± 20 nM; in experiment [7] it was 820 ± 20 nM; in experiment [8], 1040 ± 220 nM. In addition, on CpunPBP2, the “binding affinity to CpunPBP2 (in words)” value is “highest binding ability”. Moreover, the figures for the activity at 6000 µM on CpunPBP2 and at CpunPBP5 were 42.5 ± 1.88% and 40.6 ± 1.39%, respectively. In addition, the “binding affinity to CpunPBP5 (in words)” value on CpunPBP5 was “highest binding ability”. Moreover, in experiment [8] (mutant CpunPBP5-m4 vs wild type), the “binding capacity of mutant compared with CpunPBP5 (in words)” value is reported as “decreased considerably”. For the same molecule, the “attraction of males in field trials” value with yellow peach moth males was “do not attract males”.
Consider `CCCCCCCCCCCCCCCC=O` [Hexadecanal], for which, at CpunPBP2, the half-inhibitory concentration (IC50) is 1840 ± 20 nM, the equilibrium dissociation constant (Kd) is 1.07 ± 0.01 µM and the activity at 6000 µM is 34.03 ± 0.34%. Besides, at CpunPBP5, the IC50 was determined as 4510 ± 80 nM, the Kd is 3.65 ± 0.07 µM and the activity at 6000 µM was 46.83 ± 0.18%. The “attraction of males in field trials” value in the experiment with yellow peach moth males is recorded as “do not attract males”.
